The values below come from patent publication US5166214A, “Use of imidazoles for the treatment of atherosclerosis” (priority 1990, dated 1992).

Structures are written as SMILES.

For the assay, the system named is murine macrophage-like cell line J774.A1. Kind of assay: Inhibition of cholesterol esterification in mammalian cells (macrophage assay). It counts as cell-based. To be noted: J774.A1 macrophages loaded with ac-LDL, 14C-oleic acid; read-out: Cholesterol Esterification IC50. On the procedure: B. Assay of the Inhibition of Cholesterol Esterification in Mammalian Cells
The esterification of cholesterol was determined in the murine macrophage-like cell line J774.A1. Cells were seeded in 35 mm wells at a density of 300,000 cells per well in 2 mls of Dulbecco's Eagle Medium (DMEM) supplemented with 10% fetal bovine serum (FBS). Cells were incubated at 37° C. in an atmosphere of 5% CO2 and 93% humidity. After 24 hours the media was changed to 0.68 mls 10% FBS-DMEM containing 34 μg of acetylated human low density lipoprotein (ac-LDL) to increase the intracellular concentration of cholesterol and promote esterification. At 41 hours, various inhibitors were added to the cells in DMSO (10 μl/ml maximum). At 43 hours, the cells were pulsed with 0.1 mM ^14 C-oleic acid (10,000 dpm/nmol) complexed with BSA (bovine serum albumin) to follow cholesterol ester formation. The experiment was terminated at 45 hours by washing the monolayers 3 times with 3 ml of Tris-buffered saline at 4° C. The lipids were extracted by incubating the monolayers with 1.5 ml of hexane:isopropanol (3:2, v/v) for 30 min. under gentle agitation. During this period, 10,000 dpm 3H-cholesteryl linoleate and 10 μg of cholesteryl oleate were added as an internal standard and carrier respectively. The organic solvent was removed and the cells were washed with an additional 1.0 ml of hexane: isopropanol which was combined with the original extract. The cells were allowed to dry overnight, digested with 1.5 ml of 0.2N sodium hydroxide for 1 hour and an aliquot of the solubilized protein used for protein determination using the Lowry method. The organic extract was taken to dryness, the residue resuspended in 100 μl of chloroform and the lipids separated on silica gel impregnated glass fiber plates using a hexane:diethylether:acetic acid (170:30:1, v/v/v) solvent system. Individual lipids were visualized with iodine and the cholesteryl ester spot cut out and transferred to scintillation vials to determine the amount of radioactivity. The conversion of oleic acid to cholesteryl ester in the control averaged 0.54 […] and was increased upon the addition of ac-LDL to about 10.69±0.69 […]. […] It should be noted that many of the intermediates had inhibitory activity in the in vitro ACAT assay and in the macrophage assay.
For `CCCCCCCN(CCCCCCCCSc1nc(-c2ccccc2)c(-c2ccccc2)[nH]1)C(=O)Nc1ccc(F)cc1F` [Example 3, N'-(2,4-difluorophenyl)-N-[8-(4,5-diphenyl-1H-imidazol-2-ylthio)octyl]-N-heptylurea], the IC50 (in general, the concentration needed to halve the response being measured) was 17500 nM.

Turning to `CCCCCCCN(CCCCCSc1nc(-c2ccccc2)c(-c2ccccc2)n1C)C(=O)Nc1ccc(F)cc1F` [Example 6, N'-(2.4-difluorophenyl)-N-heptyl-N-[5-(1-methyl-4,5-diphenyl-1H-imidazol-2-ylthio)pentyl]urea], the IC50 is 3800 nM.

For the compound `CCCCCCCN(CCCCCSc1nc(-c2ccccc2)c(-c2ccccc2)[nH]1)C(=O)NCCC` [Example 8, N-[5-(4,5-diphenyl-1H-imidazol-2-ylthio)pentyl]-N-heptyl-N'-propylurea], the IC50 came to 500 nM.

With `CCCCCCCN(CCCCCSc1nc(-c2ccccc2)c(-c2ccccc2)[nH]1)C(=O)Nc1c(F)cc(F)cc1F` [Example 71, N-[5-(4,5-diphenyl-1H-imidazol-2-ylthio)pentyl]-N-heptyl-N'-(2,4,6-trifluorophenyl)urea], the IC50 came out at 1900 nM.

For `CCCCCCCN(CCCCCSc1nc(-c2ccccc2)c(-c2ccccc2)[nH]1)C(=O)NC1CCCCC1` [Example 94, N'-cyclohexyl-N-[5-(4,5-diphenyl-1H-imidazol-2-ylthio)pentyl]-N-heptylurea], the half-maximal inhibitory concentration (IC50) came to 100 nM.

`CCCCCCCN(CCCCCSc1nc(-c2ccccc2)c(-c2ccccc2)[nH]1)C(=O)NC(C)C` [Example 105, N-[5-(4,5-diphenyl-1H-imidazol-2-ylthio)pentyl]-N-heptyl-N'-(1-methylethyl)urea]: the IC50 was determined as 300 nM.

`CCCCCCCN(CCCCCSc1nc(-c2ccccc2)c[nH]1)C(=O)Nc1ccc(F)cc1F` [Example 160, N'-(2,4-difluorophenyl)-N-heptyl-N-[5-(4-phenyl-1H-imidazol-2-ylthio)pentyl]urea]: the half-maximal inhibitory concentration (IC50) was found to be 1600 nM.

Consider `CCCCCCCN(CCSc1nc(-c2ccccc2)c(-c2ccccc2)[nH]1)C(=O)Nc1ccc(F)cc1F` [Example 189, N'-(2,4-difluorophenyl)-N-[2-(4,5-diphenyl-1H-imidazol-2-ylthio)ethyl]-N-heptylurea], for which the IC50 was found to be 2200 nM.

As for `CCCN(CCCCCSc1nc(-c2ccccc2)c(-c2ccccc2)[nH]1)C(=O)Nc1ccc(F)cc1F` [Example 190], the IC50 was 2200 nM.

On to `CCCCCCCN(CCCCCSc1nc(-c2ccccc2)c(-c2ccccc2)[nH]1)C(=O)Nc1ccc(-c2ccccc2)cc1` [Example 192, N'-[(1,1'-biphenyl)-4-yl]-N-[5-(4,5-diphenyl-1H-imidazol-2-ylthio)pentyl]-N-heptylurea], for which the IC50 is 2000 nM.

In the case of `CCCCCCCN(CCCCCSc1nc(-c2ccc(C(C)(C)C)cc2)c(-c2ccc(C(C)(C)C)cc2)[nH]1)C(=O)Nc1ccc(F)cc1F` [Example 203], the IC50 was found to be 50000 nM.

As to `CCCCCCCCNC(=O)N(CCCCCSc1nc(-c2ccccc2)c(-c2ccccc2)[nH]1)c1ccc(F)cc1F` [Example 206, N-(2,4-difluorophenyl)-N-[5-(4,5-diphenyl-1H-imidazol-2-ylthio)pentyl]-N'-octylurea], the IC50 amounted to 400 nM.

For `CCCCCCCCNC(=O)N(CCCCCSc1nc(-c2ccccc2)c(-c2ccccc2)[nH]1)c1c(F)cc(F)cc1F` [Example 208], the IC50 is 2800 nM.

In the case of `CCCCCCCN(CCCCCSc1nc(-c2ccccc2)cn1-c1ccccc1)C(=O)Nc1ccc(F)cc1F` [Example 259], the half-inhibitory concentration (IC50) was determined as 900 nM.

As for `CCCCCCCN(CCCCCSc1ncc(-c2ccccc2)n1-c1ccccc1)C(=O)Nc1ccc(F)cc1F` [Example 260], the 50% inhibitory concentration (IC50) worked out at 6000 nM.

For the compound `CCCCCCCN(CCCCCSc1nc(-c2ccccc2)c(-c2ccccc2)[nH]1)C(=S)Nc1ccc(F)cc1F` [Example 276, N'-(2,4-difluorophenyl)-N-[5-(4,5-diphenyl-1H-imidazol-2-ylthio)pentyl]-N-heptylthiourea], the IC50 stood at 6100 nM.
